# Several values for one entry are separate records, joined by “and”; a condition that tells them apart may be missing. Equal values may be shown once.
# How the values were obtained:
# [1] = tested on: Human T cell lines from four cat allergic patients; assay: IL-2 and IL-4 production by TRFP-primed T cell lines of four cat allergic patients; assay type: cell-based; settings: panel of four patients 688, 730, 738, 807
# Experimental: Human T cell lines from four cat allergic patients (patients 688, 730, 738, and 807) were isolated. Heparinized peripheral blood specimens were obtained from cat allergic patients and the mononuclear cell fraction was purified by Ficoll-Hypaque centrifugation. An aliquot of these cells (2×10^6) was stimulated in vitro with purified native TRFP (10 μg/ml) and grown in the presence of recombinant IL-2 and IL-4. The T cell line was then rested in culture until ready for secondary proliferation assay. Two×10^4 cells were cultured in 200 μl medium containing various concentrations of test antigens with 5×10^4 γ-irradiated autologous Epstein-Barr Virus transformed cells as antigen presenting cells. After 3 days of culture, each microwell was pulsed overnight with 1 μCurie tritiated thymidine, and the amount of radioactivity incorporated was measured by liquid scintillation counting. The stimulation index (S.I.) for each antigen was then calculated. […] The IL-2 in the medium was measured by proliferation of the IL-2 dependent T cell line, […]. […] IL-4 was measured by an ELISA purchased from R&D Systems, Minneapolis, Minn. […] The stimulation indices for IL-2 and IL-4 production were calculated by dividing the amount of IL-2 or IL-4 contained in the medium from stimulated T cells divided by the amount of IL-2 or IL04 released by non-stimulated T cells.
# [2] = tested on: BDF1 mice preimmunized with TRFP; assay: Peptide Y specific antibody ELISA of sera from TRFP-preimmunized, peptide Y tolerized mice; assay type: in vivo, mouse
# Experimental: The serum was separated as previously described. […] Each incubation step in this protocol lasts 1 hour at 37° C. The wells were incubated with gelatin in PBS for blocking excess binding to the plate. Sera were diluted in PBS in a range from 1/300 to 1/8100 and incubated in triplicate on the plates. After rinsing, the bound mouse antibody was detected by incubation with biotinylated goat anti-mouse IgG (Southern Biotechnology Associates). Streptavidin conjugated to horse radish peroxidase (Southern Biotechnology Associates) was added to detect antigen bound biotinylated antibody-complexes. […] The data from the other sera dilutions were consistent with the data from the 1/900 sera dilution.
# The sera were assayed for the presence of peptide Y specific IgM, IgE, and IgG isotypes. The ELISA used to detect antigen specific binding of IgG1, IgG2a, IgG2b, IgG3 and IgM isotypes were similar to the IgG assay described above with the only difference being the biotinylated anti-immunoglobulin used to detect the bound isotype. These assays employed biotinylated goat anti-IgG1 (#1070-08), Southern Biotechnology Associates), anti-IgG2a (#1080-08, SBA), anti-IgG2b (1090-08, SBA) […] (1100-08, SBA), and anti-IgM (1020-08, SBA). Antigens bound IgE was detected similarly, but using biotinylated EM95, a rat monoclonal antibody specific for mouse IgE. (Baniyash M, Eshhar Z, Eur J. Immunol. 14:799, 1984). Biotinylated goat anti-rat Ig was used as an added signal amplification step in the IgE ELISA. […] IgG1 was the major isotype seen in the animals which were injected with saline only, with a titer of 1/2700 for all three animals. […] The titers for IgM and IgG2b were similarly effected.
# [3] = tested on: BDF1 mice preimmunized with TRFP; assay: ELISA of specific IgG binding of mouse sera to TRFP before and after tolerization; assay type: in vivo
# Experimental: BDF1 mice were each immunized with 100 μg TRFP in 200 μl IFA (Incomplete Freund's Adjuvant) in a single site intraperitoneally. After four months, the mice were bled and grouped according to their anti-TRFP IgG antibody levels as follows. The mice were warmed with an infra-red lamp and bled through one of the tail veins by nicking the vein with a razor blade (Gilette Platinum Plus). The blood was allowed to drip into a serum separating tube (Microtainer, Becton-Dickenson) and allowed to clot. The sera was then separated from the clot by centrifugation at 13,000 rpm. The sera was stored at −20° C. until use. The sera was assayed for TRFP-specific IgG by ELISA. For the IgG assay, immunoaffinity purified TRFP was coated onto Nunc Polysorp 96-well plates by incubation of 50 μl/well of 2 μg/ml TRFP in PBS. Unless mentioned, each incubation step in this protocol was performed for 1 hour at 37° C. After rinsing with PBS, the wells were incubated with 0.5% gelatin in PBS to block excess binding to the plate. The plates were rinsed with PBS containing 0.05% Tween 20. […] After rinsing, the bound mouse antibody was detected by incubation with biotinylated goat anti-mouse IgG (Southern Biotechnology Associates) diluted 1/10000 in PBS. The plates were rinsed and streptavidin conjugated to horse radish peroxidase (Southern Bio. Ass.) diluted 1/10000 was added for 20 minutes and incubated at room temperature. TMB peroxidase substrate (Kirkegaard and Perry) was used according to directions supplied. The resulting O.D. values were read by an ELISA reader (Bio-Tek modal #310) at 450 nm to quantitate the complexes bound to TRFP protein on the plates. The mice were matched for O.D. of the developed ELISA wells using the 1/500 dilution of each sera and separated into two matched groups of three animals. The range of the values for the TRFP specific IgG of 1/500 dilution sera from these animals was between 1.7 and 2.2. […]
# Fel d I primed mice = assay: Peptide Y s.c. in Fel d I primed mice, IL-2 production of lymph node cells; assay type: in vivo, mouse; settings: injected subcutaneously up to fifty-six days earlier; compared to control mice
# [4] = specific IgG binding to TRFP, 1/4500 dilution of sera, individual mice #1-#3
substance,measurement,setting,value
TRFP: human T cell reactive feline protein affinity purified from house dust; two covalently linked chains,IL-4 versus IL-2 production,[1],favors IL-4 as opposed to IL-2
peptide Y: amino acid residues 29-55 from chain 1 of TRFP (SEQ. ID. NO: 18) (KALPVVLENARILKNCVDAKMTEEDKE),IgG antibody specific for peptide Y,"[2]; 10 days after peptide Y/CFA challenge, sera 1/900",little antibody specific for peptide Y
same,"peptide Y specific IgG2a, IgG3, or IgE","[2]; mouse, in vivo",No binding above background
same,peptide Y specific IgG2b,[2]; peptide Y tolerized animals,no IgG2b binding above background
same,peptide Y specific serum IgM titer,[2]; peptide Y tolerized animals,1/300
same,peptide Y specific IgG1 titer,[2]; peptide Y tolerized animals (two animals / one animal),1/300 and no binding above background
same,quantity of antibody specific for TRFP,[3]; 20 days following tolerization,no significant change
same,ELISA O.D.-sera sampled after “tolerization and challenge,[3]; [4],0.492 and 0.654 and 0.585
same,ELISA O.D.-sera sampled before “tolerization” and challenge,[3]; [4],0.670 and 0.687 and 0.686
same,IL-2 production of lymph node cells,Fel d I primed mice,decreased IL-2 production
"NARILKNCVDAKMTEEDKE [Fel 4, TRFP chain 1 amino acids 37-55]",IL-4 versus IL-2 production,[1],induces more IL-4 than IL-2

# Source: US7482008B1, “Human T cell reactive feline protein (TRFP) isolated from house dust and uses therefor” (Merck Patent GmbH, priority 1989, dated 2009)
